The subject of the assay is feline calicivirus. Description: Antiviral activity value (Mv) by methods of JIS L 1922, plaque count measurement of virus infectivity. How it is done: The performance of each of the above antiviral agents was evaluated by applying methods shown in JIS L 1922 (antiviral property test method of fiber product), and an antiviral activity value (Mv) obtained was used to determine the antiviral property. […] Purified water was added to the antiviral agent so that its concentration was 0.1% by mass. Next, 100 μL of feline calicivirus solution having a virus infectivity of 1 to 5×10^7 PFU/mL was added to 900 μL of the above liquid, and a mixed liquid was allowed to stand at a temperature of 25° C. for 2 hours. Thereafter, the mixed liquid was recovered, and the recovered liquid was subjected to a plaque count measurement method to measure the virus infectivity. The virus infectivity was measured in the same manner as the test sample except that 900 μL of phosphate buffered saline (PBS) was used as a control sample instead of the test sample. The performance of the antiviral agent was evaluated by the antiviral activity value (Mv) obtained by the following formula. Mv=Log (virus infectivity of control sample)−Log (virus infectivity of test sample)

`[Ca+2].[OH-].[OH-]` [V3, calcium hydroxide]: the “Antiviral activity value Mv” value was determined as 4.2 and the “antiviral properties (assessment in words)” value is reported as “excellent antiviral properties”.

The values above are taken from patent US20210386071A1, “ANTI-NON-ENVELOPED VIRUS AGENT AND COMPOSITION CONTAINING SAME, AND ANTI-VIRAL PRODUCT AND METHOD FOR PRODUCING SAME” (TOAGOSEI CO., LTD., priority 2018, published 2021).
